These results are taken from the NIST ThermoML archive (doi:10.1007/s10765-017-2323-6).

Series [1] can be described thus: Molar enthalpy of transition or fusion. As to conditions: Crystal; DSC.
For series [2] the following is noted: Crystal; DTA.

Structures are written as SMILES. ± gives the expanded uncertainty stated by the source.

As to `CC(=O)CCc1ccc(O)cc1` [4-(4-hydroxyphenyl)butan-2-one], the “Molar enthalpy of transition or fusion” value in series [1] amounted to 5.9 ± 0.143 kcal/mol. In addition, the Normal melting temperature in series [2] was 82 ± 0.6 °C.
